Assay results reported in patent US11980188B2, “Spiro cyclohexanedione derivates as herbicides” (SYNGENTA PARTICIPATIONS AG, priority 2018, dated 2024).

Tests used:
Assay in all cases: Glasshouse herbicide test, pre- and post-emergence, percentage damage
Assay type in all cases: in vivo
[1] = system: Alopecurus myosuroides (ALOMY); conditions: 250 g/h, evaluated after 13 days, percentage damage on five point scale; for ALOMY POST: post-emergence; for ALOMY PRE: pre-emergence
Procedure, shortened: (§1)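 Five-point damage scores (5=80-100%, 1=0-19%) were recorded 13 days after application of 250 g/h. Treatment was pre-emergence (1 day after sowing) or post-emergence (8 days), and plants were kept at 24/16 °C, 14 h light, 65% humidity with twice-daily watering.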

Avena fatua (AVEFA) = conditions: 250 g/h, evaluated after 13 days, percentage damage on five point scale; for AVEFA POST: post-emergence; for AVEFA PRE: pre-emergence
Procedure, shortened: as §1

[2] = system: Echinochloa crus-galli (ECHCG); conditions: 250 g/h, evaluated after 13 days, percentage damage on five point scale; for ECHCG POST: post-emergence; for ECHCG PRE: pre-emergence
Procedure, shortened: as §1

Lolium perenne (LOLPE) = conditions: 250 g/h, evaluated after 13 days, percentage damage on five point scale; for LOLPE POST: post-emergence; for LOLPE PRE: pre-emergence
Procedure, shortened: as §1

Setaria faberi (SETFA) = conditions: 250 g/h, evaluated after 13 days, percentage damage on five point scale; for SETFA POST: post-emergence; for SETFA PRE: pre-emergence
Procedure, shortened: as §1

| SMILES | ALOMY POST [1] | ALOMY PRE [1] | AVEFA POST (Avena fatua (AVEFA)) | AVEFA PRE (Avena fatua (AVEFA)) | ECHCG POST [2] | ECHCG PRE [2] | LOLPE POST (Lolium perenne (LOLPE)) | LOLPE PRE (Lolium perenne (LOLPE)) | SETFA POST (Setaria faberi (SETFA)) | SETFA PRE (Setaria faberi (SETFA)) |
| --- | --- | --- | --- | --- | --- | --- | --- | --- | --- | --- |
| CC(=O)N1CCC2(CC1)CC(=O)C(c1c(C)cc(C)cc1C)C(=O)C2 [Compound A42] | 5 (5=80-100%) | 5 (5=80-100%) | 5 (5=80-100%) | 5 (5=80-100%) | 1 (1=0-19%) | 3 (3=40-59%) | 5 (5=80-100%) | 5 (5=80-100%) | 5 (5=80-100%) | 5 (5=80-100%) |
| Cc1cc(-c2ncc(F)cn2)cc(C)c1C1C(=O)CC2(CCN(C(=O)NC(=O)C(C)(C)C)CC2)CC1=O [Compound A37] | 5 (5=80-100%) | 5 (5=80-100%) | 5 (5=80-100%) | 5 (5=80-100%) | – | 5 (5=80-100%) | 5 (5=80-100%) | 5 (5=80-100%) | 5 (5=80-100%) | 5 (5=80-100%) |
| COCC(=O)N1CCC2(CC1)CC(=O)C(c1c(C)cc(-c3ccc(C#N)cn3)cc1C)C(=O)C2 [Compound A25] | 5 (5=80-100%) | 5 (5=80-100%) | 5 (5=80-100%) | 5 (5=80-100%) | 5 (5=80-100%) | 5 (5=80-100%) | 5 (5=80-100%) | 5 (5=80-100%) | 5 (5=80-100%) | 5 (5=80-100%) |
| Cc1cc(-c2ccc(C#N)cn2)cc(C)c1C1C(=O)CC2(CCN(C(=O)C(C)(C)C)CC2)CC1=O [Compound A30] | 5 (5=80-100%) | 5 (5=80-100%) | 5 (5=80-100%) | 3 (3=40-59%) | 5 (5=80-100%) | 5 (5=80-100%) | 5 (5=80-100%) | 5 (5=80-100%) | 5 (5=80-100%) | 5 (5=80-100%) |
| CC(=O)N1CCC2(CC1)CC(=O)C(c1c(C)cc(-c3ncc(C#N)cn3)cc1C)C(=O)C2 [Compound A52] | 5 (5=80-100%) | 5 (5=80-100%) | 5 (5=80-100%) | 5 (5=80-100%) | 5 (5=80-100%) | 5 (5=80-100%) | 5 (5=80-100%) | 5 (5=80-100%) | 5 (5=80-100%) | 5 (5=80-100%) |
| Cc1cc(-c2ccc(C#N)cn2)cc(C)c1C1C(=O)CC2(CCN(C(=O)C(F)F)CC2)CC1=O [Compound A29] | 5 (5=80-100%) | – | 5 (5=80-100%) | 5 (5=80-100%) | 4 (4=60-79%) | 1 (1=0-19%) | 5 (5=80-100%) | 1 (1=0-19%) | 5 (5=80-100%) | 5 (5=80-100%) |
| CON1CCC2(CC1)CC(=O)C(c1c(C)cc(-c3ncc(Cl)cn3)cc1C)C(=O)C2 [Compound A1] | 5 (5=80-100%) | 5 (5=80-100%) | 5 (5=80-100%) | 5 (5=80-100%) | 5 (5=80-100%) | 5 (5=80-100%) | 5 (5=80-100%) | 5 (5=80-100%) | 5 (5=80-100%) | 5 (5=80-100%) |
| Cc1cc(-c2ncc(F)cn2)cc(C)c1C1C(=O)CC2(CCN(C(=O)C(C)(C)C)CC2)CC1=O [Compound A40] | 5 (5=80-100%) | 5 (5=80-100%) | 5 (5=80-100%) | 5 (5=80-100%) | 5 (5=80-100%) | 5 (5=80-100%) | 5 (5=80-100%) | 5 (5=80-100%) | 5 (5=80-100%) | 5 (5=80-100%) |
| COc1cc(-c2ncc(F)cn2)cc(OC)c1C1C(=O)CC2(CCN(OC)CC2)CC1=O [Compound A8] | 5 (5=80-100%) | 5 (5=80-100%) | 5 (5=80-100%) | 5 (5=80-100%) | 5 (5=80-100%) | 5 (5=80-100%) | 5 (5=80-100%) | 5 (5=80-100%) | 5 (5=80-100%) | 5 (5=80-100%) |
